Key:
Assay in all cases: Test B pre-/postemergence plant response
Type in all cases: in vivo
[1] = test system: Italian ryegrass (Lolium multiflorum); conditions: for Ryegrass, Italian plant response rating: 8 g ai/ha
How it was run: (§1)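 Seeds were sown and sprayed preemergence, while plants at 2 to 18 cm (1- to 4-leaf stage) got postemergence sprays. Compounds were formulated in a non-phytotoxic solvent mixture with surfactant. After 13 to 15 days in a greenhouse, injury was rated visually against untreated controls, 0 (no effect) to 100 (complete control).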

[2] = test system: Russian thistle (Salsola iberica); conditions: Preemergence
How it was run: as §1

[3] = test system: catchweed bedstraw (Galium aparine); conditions: Preemergence
How it was run: as §1

[4] = test system: cocklebur (Xanthium strumarium); conditions: for Cocklebur plant response rating: 8 g ai/ha
How it was run: as §1

[5] = test system: common ragweed (Ambrosia elation); conditions: for Ragweed plant response rating: 8 g ai/ha
How it was run: as §1

corn (Zea mays) = conditions: for Corn plant response rating: 8 g ai/ha
How it was run: as §1

[6] = test system: eastern black (E.B.) nightshade (Solanum ptycanthum); conditions: Preemergence
How it was run: as §1

[7] = test system: green foxtail (Setaria viridis); conditions: for Foxtail, Green plant response rating: 8 g ai/ha
How it was run: as §1

kochia (Kochia scoparia) = conditions: for Kochia plant response rating: 8 g ai/ha
How it was run: as §1

[8] = test system: lambsquarters (Chenopodium album)
How it was run: as §1

[9] = test system: morningglory (Ipomoea coccinea); conditions: for Morningglory plant response rating: 8 g ai/ha
How it was run: as §1

[10] = test system: surinam grass (Brachiaria decumbens); conditions: for Surinam Grass plant response rating: 8 g ai/ha
How it was run: as §1

wild oat (Avena fatua) = conditions: for Oat, Wild plant response rating: 8 g ai/ha
How it was run: as §1

[11] = test system: yellow nutsedge (Cyperus esculentus); conditions: for Nutsedge, Yellow plant response rating: 8 g ai/ha
How it was run: as §1

[12] = Postemergence, 16 g ai/ha, scale 0 to 100
[13] = Postemergence, 31 g ai/ha, scale 0 to 100, 0 no effect, 100 complete control
[14] = Postemergence, 62 g ai/ha, scale 0 to 100
[15] = Preemergence, 16 g ai/ha, scale 0 to 100 (0 no effect, 100 complete control)
[16] = Preemergence, 31 g ai/ha, 0 to 100 scale, 0 no effect, 100 complete control
[17] = Preemergence, 62 g ai/ha, scale 0 to 100
[18] = 16 g ai/ha, scale 0 to 100 (0 no effect, 100 complete control)
[19] = 31 g ai/ha, 0 to 100 scale, 0 no effect, 100 complete control

CCc1cc(-c2ccc(C(F)(F)F)cc2)nn1-c1c(OS(C)(=O)=O)cnn(C)c1=O [Compound 19]
Ryegrass, Italian plant response rating ([1]; postemergence, 0-100 scale): 80
Plant response rating, Ryegrass, Italian [1, 12]: 98
Plant response rating, Ryegrass, Italian [1, 13]: 100
Plant response rating, Ryegrass, Italian [1, 14]: 100
Plant response rating, Ryegrass, Italian [1, 15]: 90
Plant response rating, Ryegrass, Italian [1, 16]: 100
Plant response rating, Ryegrass, Italian [1, 17]: 100
Ryegrass, Italian plant response rating ([1]; Preemergence, scale 0 to 100): 50
Plant response rating, Russian Thistle [2, 18]: 0
Plant response rating, Russian Thistle [2, 19]: 0
Russian Thistle plant response rating ([2]; 8 g ai/ha, scale 0 to 100): 0
Plant response rating, Galium [3, 19]: 0
Plant response rating, Galium ([3]; 62 g ai/ha, scale 0 to 100): 0
Galium plant response rating ([3]; 8 g ai/ha, scale 0 to 100): 0
Cocklebur plant response rating ([4]; postemergence, 0-100 scale): 0
Plant response rating, Cocklebur [4, 12]: 0
Plant response rating, Cocklebur [4, 13]: 0
Plant response rating, Cocklebur [4, 14]: 0
Plant response rating, Cocklebur [4, 15]: 0
Plant response rating, Cocklebur [4, 16]: 0
Plant response rating, Cocklebur [4, 17]: 0
Cocklebur plant response rating ([4]; Preemergence, scale 0 to 100): 0
Ragweed plant response rating ([5]; postemergence, 0-100 scale): 0
Plant response rating, Ragweed [5, 12]: 0
Plant response rating, Ragweed [5, 13]: 0
Plant response rating, Ragweed [5, 14]: 0
Plant response rating, Ragweed [5, 15]: 0
Plant response rating, Ragweed [5, 16]: 0
Plant response rating, Ragweed [5, 17]: 0
Ragweed plant response rating ([5]; Preemergence, scale 0 to 100): 0
Corn plant response rating (corn (Zea mays); postemergence, 0-100 scale): 0
Plant response rating, Corn (corn (Zea mays); [12]): 0
Plant response rating, Corn (corn (Zea mays); [13]): 0
Plant response rating, Corn (corn (Zea mays); [14]): 95
Plant response rating, Corn (corn (Zea mays); [15]): 85
Plant response rating, Corn (corn (Zea mays); [16]): 95
Plant response rating, Corn (corn (Zea mays); [17]): 98
Corn plant response rating (corn (Zea mays); Preemergence, scale 0 to 100): 70
Plant response rating, Nightshade, E. B. [6, 18]: 0
Plant response rating, Nightshade, E. B. ([6]; 62 g ai/ha, scale 0 to 100): 0
Nightshade, E. B. plant response rating ([6]; 8 g ai/ha, scale 0 to 100): 0
Foxtail, Green plant response rating ([7]; postemergence, 0-100 scale): 60
Plant response rating, Foxtail, Green [7, 12]: 100
Plant response rating, Foxtail, Green [7, 13]: 100
Plant response rating, Foxtail, Green [7, 14]: 100
Plant response rating, Foxtail, Green [7, 15]: 100
Plant response rating, Foxtail, Green [7, 16]: 100
Plant response rating, Foxtail, Green [7, 17]: 100
Foxtail, Green plant response rating ([7]; Preemergence, scale 0 to 100): 85
Kochia plant response rating (kochia (Kochia scoparia); postemergence, 0-100 scale): 0
Plant response rating, Kochia (kochia (Kochia scoparia); [12]): 0
Plant response rating, Kochia (kochia (Kochia scoparia); [13]): 0
Plant response rating, Kochia (kochia (Kochia scoparia); [14]): 0
Plant response rating, Kochia (kochia (Kochia scoparia); [15]): 0
Plant response rating, Kochia (kochia (Kochia scoparia); [17]): 0
Kochia plant response rating (kochia (Kochia scoparia); Preemergence, scale 0 to 100): 0
Lambsquarters plant response rating ([8]; 8 g ai/ha, postemergence, 0-100 scale): 0
Plant response rating, Lambsquarters [8, 12]: 0
Plant response rating, Lambsquarters [8, 13]: 0
Plant response rating, Lambsquarters [8, 14]: 0
Plant response rating, Lambsquarters [8, 15]: 0
Plant response rating, Lambsquarters [8, 16]: 0
Plant response rating, Lambsquarters [8, 17]: 40
Morningglory plant response rating ([9]; postemergence, 0-100 scale): 0
Plant response rating, Morningglory [9, 12]: 0
Plant response rating, Morningglory [9, 13]: 0
Plant response rating, Morningglory [9, 14]: 0
Plant response rating, Morningglory [9, 15]: 0
Plant response rating, Morningglory [9, 16]: 0
Plant response rating, Morningglory [9, 17]: 0
Morningglory plant response rating ([9]; Preemergence, scale 0 to 100): 0
Surinam Grass plant response rating ([10]; postemergence, 0-100 scale): 90
Plant response rating, Surinam Grass [10, 12]: 100
Plant response rating, Surinam Grass [10, 13]: 100
Plant response rating, Surinam Grass [10, 14]: 100
Plant response rating, Surinam Grass [10, 15]: 80
Plant response rating, Surinam Grass [10, 16]: 98
Plant response rating, Surinam Grass [10, 17]: 100
Surinam Grass plant response rating ([10]; Preemergence, scale 0 to 100): 80
Oat, Wild plant response rating (wild oat (Avena fatua); postemergence, 0-100 scale): 90
Plant response rating, Oat, Wild (wild oat (Avena fatua); [12]): 98
Plant response rating, Oat, Wild (wild oat (Avena fatua); [13]): 100
Plant response rating, Oat, Wild (wild oat (Avena fatua); [14]): 100
Plant response rating, Oat, Wild (wild oat (Avena fatua); [15]): 75
Plant response rating, Oat, Wild (wild oat (Avena fatua); [16]): 95
Plant response rating, Oat, Wild (wild oat (Avena fatua); [17]): 95
Oat, Wild plant response rating (wild oat (Avena fatua); Preemergence, scale 0 to 100): 60
Nutsedge, Yellow plant response rating ([11]; postemergence, 0-100 scale): 0
Plant response rating, Nutsedge, Yellow [11, 12]: 0
Plant response rating, Nutsedge, Yellow [11, 13]: 0
Plant response rating, Nutsedge, Yellow [11, 14]: 30
Plant response rating, Nutsedge, Yellow [11, 15]: 0
Plant response rating, Nutsedge, Yellow [11, 16]: 0
Plant response rating, Nutsedge, Yellow [11, 17]: 0
Nutsedge, Yellow plant response rating ([11]; Preemergence, scale 0 to 100): 0

Reference: patent publication US20100267561A1, “HERBICIDAL PYRIDAZINONE DERIVATIVES” (priority 2007, published 2010)
